Assay results: patent US5763439A, “Pyridazinone derivatives or their salts, processes for their production, and anti-shock agents containing them” (Ishihara Sangyo Kaisha Ltd., priority 1993, dated 1998)

What was measured:
[1] = test system: enteric hemorrhage of each rat; experiment: Test Example 1: inhibition of enteric hemorrhage induced by intravenous lipopolysaccharide (E. coli) in rats; type: in vivo, SD male rats; settings: ip, 30 min before LPS 10 mg/kg i.v., 1 h after LPS, read-out: Inhibition rate; for inhibition in vivo at 12.5 mg/kg: 12.5 mg/kg i.p.; for inhibition in vivo at 25 mg/kg: 25 mg/kg i.p.; for inhibition in vivo at 50 mg/kg: 50 mg/kg i.p.
Protocol: A drug having a test compound dissolved in the form of its Na^+ salt or Cl^- salt in saline or suspended in saline containing 0.5% by weight of carboxymethyl cellulose (manufactured by Nakalai Tesque K. K., hereinafter referred to simply as CMC), was intraperitonially injected to SD male rats of seven weeks old. […] One hour after the injection of the lipopolysaccharide, enteric hemorrhage of each rat was inspected, and the degree of hemorrhage was evaluated by the following ratings:
(§1) 2: Slight subepithelial congestion
(§2) 4: Subepithelial congestion over a wide range and slight submucous congestion
6: Submucous congestion over a wide range, flow out of blood from submucous tissues and necrosis
For the control, the test was conducted in the same manner except that no test compound was added.
The inhibition rate was obtained by the following formula.
(§3) Inhibition rate (%)=(A-B)/A×100
(§4) B: rating of a rat administered with a test compound

[2] = Test Example 2: Acute Toxicity; settings: mouse, in vivo, ip, DDY male mice, five mice per group, read-out: 50% lethal dose LD50
Protocol: Using DDY male mice of five weeks old, each group consisted of five mice. A test compound was suspended in saline containing 0.5% by weight of CMC and intraperitonially injected at a dose of 0.1 ml/10 g. 24 hours after the injection, survival or death was observed, and the number of death/the number of tested animals was obtained, and the 50% lethal dose LD50 was estimated, whereby LD50 of each of Compound Nos. 4, 9, 10, 15, 21, 25, 30, 33, 37, 44, 47, 58, 60 and 67 was at least 100 mg/kg.

SD male rats = experiment: Test Example 3: survival of rats after intravenous lipopolysaccharide (E. coli); type: in vivo; settings: 50 mg/kg i.p. 30 min before and again 3 h after LPS 10 mg/kg i.v.; 48 h; control 0%
Protocol: A drug having a test compound suspended in saline containing 0.5% by weight of CMC, was intraperitonially administered to SD male rats of seven weeks old so that the dose would be 50 mg/kg. 30 minutes after the injection of the drug, lipopolysaccharide derived from E. coli (manufactured by Difco Company, Product No. 0127:B8) was intravenously injected into the tail vein of each rat so that the dose would be 10 mg/kg. Three hours after the injection of the lipopolysaccharide, the drug was again intraperitonially administered in the same amount.
(§5) Survival rate (%)=(number of survived animals/number of tested

[3] = test system: enteric hemorrhage of each rat; experiment: Test Example 5: inhibition of enteric hemorrhage induced by intravenous PAF in rats; type: in vivo, SD male rats; settings: 12.5 mg/kg i.p. 30 min before PAF (10 μg/ml, 1 ml/kg i.v.); 1 h after PAF
Protocol: A drug having a test compound dissolved in the form of its Na^+ salt or or Cl^- salt in saline or suspended in saline containing 0.5% by weight of CMC, was intraperitonially injected to SD male rats of seven weeks old so that the dose of the test compound would be 12.5 mg/kg. 30 minutes after the injection of the drug, a solution (containing 1% by weight of dimethylsulfoxide) having PAF dissolved in saline to a concentration of 10 μg/ml, was intravenously injected into the tail vein of each rat in an amount of 1 ml/kg.
One hour after the injection of PAF, enteric hemorrhage of each rat was inspected, and the degree of hemorrhage was evaluated by the following ratings:
as §1, §2
6: Submucous congestion over a wide range, flow out of blood from the submucous tissues and necrosis
as §3, §4

DDY male mice = experiment: Test Example 4: survival of mice after intravenous platelet-activating factor (PAF); type: in vivo; settings: 100 mg/kg i.p. 1 h before PAF (10 μg/ml, 15 ml/kg i.v.); 1 h after PAF; control 0% (Nos. 21, 71, 78) or 14% (Nos. 22, 47)
Protocol: A drug having a test compound dissolved in the form of its Na^+ salt or or Cl^- salt in saline or suspended in saline containing 0.5% by weight of CMC, was intraperitonially injected to DDY male mice of five weeks old so that the dose would be 100 mg/kg. One hour after the injection of the drug, a solution (containing 1% by weight of dimethylsulfoxide) having a platelet-activating factor (PAF) dissolved in saline to a concentration of 10 μg/ml, was intravenously injected into the tail vein of each mouse in an amount of 15 ml/kg.
One hour after the injection of PAF, survival or death of each mouse was observed, and the survival rate was obtained by the following formula, whereby with Compound Nos. 21, 47, 71 and 78, the survival rate was 100%, and with Compound No. 22, the survival rate was 80%.
Further, for the control, the test was conducted in the same manner except that no test compound was added, whereby with each control corresponding to the test group for each of Compound Nos. 21, 71 and 78, the survival rate was 0%, and in the case of Compound Nos. 22 and 47, the survival rate of the control was 14%.
as §5

Compound | inhibition in vivo at 12.5 mg/kg [1] [%] | LD50 at 24 h [2] [mg/kg] | inhibition in vivo at 50 mg/kg [1] [%] | also measured
CC(C)(C)n1ncc(NCc2ccncc2)c(C=NCc2ccncc2)c1=O [Compound No. 2, 2-tert-butyl-5-(4-pyridylmethylamino)-4-(4-pyridylmethyliminomethylidenyl)pyridazin-3-(2H)-one] | 75 | – | – | inhibition in vivo at 25 mg/kg [1]: 98%
Cc1c(NC(=O)c2ccncc2)cnn(C(C)(C)C)c1=O [Compound No. 1, 2-tert-butyl-4-methyl-5-(4-pyridylcarbonylamino)pyridazin-3-(2H)-one] | – | – | – | inhibition in vivo at 25 mg/kg [1]: 96%
CON=Cc1c(NCc2ccncc2)cnn(C(C)(C)C)c1=O [Compound No. 16, 2-tert-butyl-5-(4-pyridylmethylamino)-4-methoxyiminomethylidenylpyridazin-3-(2H)-one] | – | – | – | inhibition in vivo at 100 mg/kg ([1]; 100 mg/kg i.p.): 100%
CC(C)(C)n1ncc(NCc2ccncc2)c(N(S(C)(=O)=O)S(C)(=O)=O)c1=O [Compound No. 30, 2-tert-butyl-4-N,N-bis(methanesulfonyl)amino-5-(4-pyridylmethylamino)pyridazin-3-(2H)-one] | – | ≥ 100 | – | –
Cn1ncc(NCc2ccncc2)c(CO)c1=O [Compound No. 70, 4-hydroxymethyl-2-methyl-5-(4-pyridylmethylamino)pyridazin-3-(2H)-one] | 72 | – | – | Survival rate (SD male rats): 50%
C[S+]([O-])c1c(NCc2ccncc2)cnn(C(C)(C)C)c1=O (stereo not shown) [Compound No. 8, 2-tert-butyl-4-methanesulfinyl-5-(4-pyridylmethylamino)pyridazin-3-(2H)-one] | 72 | – | – | –
CC(=O)N(C)c1c(NCc2ccncc2)cnn(C)c1=O [Compound No. 69, 2-methyl-4-(N-methyl)acetylamino-5-(4-pyridylmethylamino)pyridazin-3-(2H)-one] | 78 | – | – | Inhibition rate [3]: 100%
CCC(=O)Nc1c(NCc2ccncc2)cnn(C(C)(C)C)c1=O [Compound No. 28, 2-tert-butyl-4-propionylamide-5-(4-pyridylmethylamino)pyridazin-3-(2H)-one] | 42 | – | 83 | –
COCc1c(N(C)Cc2ccncc2)cnn(C)c1=O [Compound No. 73, 4-methoxymethyl-2-methyl-5-(N-methyl-4-pyridylmethylamino)pyridazin-3-(2H)-one] | 76 | – | – | Survival rate (SD male rats): 75%; Inhibition rate [3]: 92%
CC1CCOC(c2c(NCc3ccncc3)cnn(C(C)(C)C)c2=O)O1 (stereo not shown) [Compound No. 44, 2-tert-butyl-4-(4-methyl-1,3-dioxan-2-yl)-5-(4-pyridylmethylamino)pyridazin-3-(2H)-one] | 77 | ≥ 100 | – | –
CSc1c(NCc2ccncc2)cnn(C(C)(C)C)c1=O [Compound No. 7, 2-tert-butyl-4-methylthio-5-(4-pyridylmethylamino)pyridazin-3-(2H)-one] | 78 | – | 100 | –
COCc1c(NCc2ccncc2)cnn(C)c1=O [Compound No. 105, 4-methoxymethyl-2-methyl-5-(4-pyridylmethylamino)pyridazin-3-(2H)-one] | 92 | – | – | –
CC(C)(C)n1ncc(NCc2ccncc2)c(N)c1=O [Compound No. 10, 4-amino-2-tert-butyl-5-(4-pyridylmethylamino)pyridazin-3-(2H)-one] | 50 | ≥ 100 | 94 | –
CC(C)(C)n1ncc(NCc2ccncc2)c(C=O)c1=O [Compound No. 24, 2-tert-butyl-4-formyl-5-(4-pyridylmethylamino) pyridazin-3-(2H)-one] | – | – | 100 | –
CC(C)(C)n1ncc(NCc2ccncc2)c(S(C)(=O)=O)c1=O [Compound No. 9, 2-tert-butyl-4-methanesulfonyl-5-(4-pyridylmethylamino)pyridazin-3-(2H)-one] | – | ≥ 100 | 43 | –
COC(=O)c1c(NCc2ccncc2)cnn(C(C)(C)C)c1=O [Compound No. 22, 2-tert-butyl-4-methoxycarbonyl-5-(4-pyridylmethylamino)pyridazin-3-(2H)-one] | 41 | – | – | inhibition in vivo at 25 mg/kg [1]: 100%; Survival rate (DDY male mice): 80%
CCn1ncc(NCc2ccncc2)c(C#N)c1=O [Compound No. 47, 4-cyano-2-ethyl-5-(4-pyridylmethylamino)pyridazin-3-(2H)-one] | 75 | ≥ 100 | – | Survival rate (DDY male mice): 100%
CC(C)(C)n1ncc(NCc2ccncc2)c(C#N)c1=O [Compound No. 21, 2-tert-butyl-4-cyano-5-(4-pyridylmethylamino)pyridazin-3-(2H)-one] | 65 | ≥ 100 | 100 | inhibition in vivo at 25 mg/kg [1]: 96%; Survival rate (DDY male mice): 100%
